Measurements from US12052991B2, “Substituted pyridinyloxybenzenes and salts thereof and use thereof as herbicidal agents” (Bayer Aktiengesellschaft, priority 2018, dated 2024).

Legend:
Assay type in all cases: in vivo
Bassia scoparia (KCHSC) [1] = test: Herbicidal pre-emergence action, test C (Table C11); conditions: visual scoring vs untreated controls
From the text: Seeds of mono- and dicotyledonous weed plants were placed in plastic pots in sandy loam soil (doubly sown with one species each of mono- or dicotyledonous weed plants per pot) and covered with soil. The compounds of the invention, formulated in the form of wettable powders (WP) or as emulsion concentrates (EC), were then applied onto the surface of the covering soil as aqueous suspension or emulsion with addition of 0.5% additive at a water application rate of 600 liters per hectare (converted). After the treatment, the pots were placed in a greenhouse and kept under good growth conditions for the test plants. After about 3 weeks, the effect of the preparations was scored visually in comparison with untreated controls as percentages. For example, 100% activity=the plants have died, 0% activity=like control plants. Tables C1 to C12 below show the effects of selected compounds of the general formula (I) according to Table 1 on various harmful plants and an application rate corresponding to 1280 or 320 g/ha, which were obtained by the experimental procedure mentioned above.

[2] = system: Alopecurus myosuroides (ALOMY); test: Herbicidal post-emergence action (Table B9); conditions: rated visually after about 3 weeks, 100% = plants have died, 0% = like control plants
Summary of the method: (§1)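 Greenhouse pot-grown weeds in sandy loam, sprayed at the one-leaf stage (2–3 weeks post-sowing) with WP or EC formulations plus 0.5% additive at 600 l/ha water, at 1280 or 320 g/ha. Visual % activity versus untreated controls rated about 3 weeks later (100% = dead).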

[3] = system: harmful plants ABUTH, AMARE, ECHCG, LOLRI, MATIN, POAAN, SETVI, STEME, ALOMY, DIGSA, KCHSC and VERPE; test: Herbicidal pre-emergence action (test C), summary of Tables C1-C12; conditions: application rate of 1280 or 320 g of active ingredient per hectare; summary in words
Summary of the method: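 Pre-emergence pot test in sandy loam: WP or EC formulations were sprayed onto the covering soil with 0.5% additive at 600 L/ha water, at 1280 or 320 g/ha. Plants were kept in the greenhouse, and activity was rated visually about 3 weeks later as % versus untreated controls (100% = dead).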

[4] = system: Digitaria sanguinalis (DIGSA); test: Herbicidal pre-emergence action, test C (Table C10); conditions: visual scoring after about 3 weeks, 100% = plants have died, 0% = like control plants
Summary of the method: (§2)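 % herbicidal effect, visual, vs untreated; 0% = as control, 100% = plants dead. Scored ~3 wk post-application. Rate 1280 or 320 g/ha onto covering soil pre-emergence.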

Veronica persica (VERPE) [5] = test: Herbicidal pre-emergence action, test C (Table C12); conditions: visual scoring vs untreated controls
Summary of the method: as §2

Lolium rigidum (LOLRI) [6] = test: Herbicidal post-emergence action (Table B2); conditions: 1280 g/ha; rated visually after about 3 weeks; 100% = plants have died, 0% = like control plants
Experimental: (§3) Seeds of mono- and dicotyledonous weed plants were placed in plastic pots in sandy loam soil (doubly sown with in each case one species of mono- or dicotyledonous weed plants per pot), covered with soil and cultivated in a greenhouse under controlled growth conditions. 2 to 3 weeks after sowing, the test plants were treated at the one-leaf stage. The compounds of the invention, formulated in the form of wettable powders (WP) or as emulsion concentrates (EC), were applied onto the green parts of the plants as aqueous suspension or emulsion with addition of 0.5% additive at a water application rate of 600 liters per hectare (converted). After the test plants had been kept in the greenhouse under optimum growth conditions for about 3 weeks, the activity of the preparations was rated visually in comparison to untreated controls. For example, 100% activity=the plants have died, 0% activity=like control plants. Tables B1 to B12 below show the effects of selected compounds of the general formula (I) according to Table 1 on various harmful plants and an application rate corresponding to 1280 or 320 g/ha, which were obtained by the experimental procedure mentioned above.

Stellaria media (STEME) [7] = test: Herbicidal post-emergence action (Table B8); conditions: visual rating about 3 weeks after treatment, 100% = plants have died, 0% = like control plants
Summary of the method: as §1

[8] = system: Alopecurus myosuroides (ALOMY); test: Herbicidal pre-emergence action, test C (Table C9); conditions: dosage 1280 g/ha; visual scoring after about 3 weeks; 100% = plants have died, 0% = like control plants
Summary of the method: as §2

Stellaria media (STEME) [9] = test: Herbicidal pre-emergence action, test C (Table C8); conditions: visual scoring after about 3 weeks, 100% = plants have died, 0% = like control plants
Summary of the method: as §2

Lolium rigidum (LOLRI) [10] = test: Herbicidal pre-emergence action, test C (Table C2); conditions: dosage 1280 g/ha; visual scoring after about 3 weeks; 100% = plants have died, 0% = like control plants
Summary of the method: as §2

Setaria viridis (SETVI) [11] = test: Herbicidal post-emergence action (Table B4); conditions: 1280 g/ha; rated visually after about 3 weeks; 100% = plants have died, 0% = like control plants
Experimental: as §3

Bassia scoparia (KCHSC) [12] = test: Herbicidal post-emergence action (Table B11); conditions: visual rating about 3 weeks after treatment, 100% = plants have died, 0% = like control plants
Summary of the method: as §1

Veronica persica (VERPE) [13] = test: Herbicidal post-emergence action (Table B12); conditions: visual rating about 3 weeks after treatment, 100% = plants have died, 0% = like control plants
Summary of the method: as §1

[14] = system: Digitaria sanguinalis (DIGSA); test: Herbicidal post-emergence action (Table B10); conditions: visual rating about 3 weeks after treatment, 100% = plants have died, 0% = like control plants
Summary of the method: as §1

Poa annua (POAAN) [15] = test: Herbicidal pre-emergence action, test C (Table C3); conditions: visual scoring after about 3 weeks, 100% = plants have died, 0% = like control plants
Summary of the method: as §2

Setaria viridis (SETVI) [16] = test: Herbicidal pre-emergence action, test C (Table C4); conditions: visual scoring after about 3 weeks, 100% = plants have died, 0% = like control plants
Summary of the method: as §2

[17] = system: Amaranthus retroflexus (AMARE); test: Herbicidal post-emergence action (Table B6); conditions: visual rating about 3 weeks after treatment, 100% = plants have died, 0% = like control plants
Summary of the method: as §1

[18] = system: Abutilon theophrasti (ABUTH); test: Herbicidal post-emergence action (Table B5); conditions: rated visually after about 3 weeks, 100% = plants have died, 0% = like control plants
Summary of the method: as §1

[19] = system: Echinochloa crus-galli (ECHCG); test: Herbicidal post-emergence action (Table B1); conditions: rated visually after about 3 weeks, 100% = plants have died, 0% = like control plants
Summary of the method: as §1

[20] = system: Echinochloa crus-galli (ECHCG); test: Herbicidal pre-emergence action, test C (Table C1); conditions: dosage 1280 g/ha; visual scoring after about 3 weeks; 100% = plants have died, 0% = like control plants
Summary of the method: as §2

[21] = system: Amaranthus retroflexus (AMARE); test: Herbicidal pre-emergence action, test C (Table C6); conditions: visual scoring after about 3 weeks, 100% = plants have died, 0% = like control plants
Summary of the method: as §2

[22] = system: Abutilon theophrasti (ABUTH); test: Herbicidal pre-emergence action, test C (Table C5); conditions: visual scoring after about 3 weeks, 100% = plants have died, 0% = like control plants
Summary of the method: as §2

[23] = system: Matricaria inodora (MATIN); test: Herbicidal pre-emergence action, test C (Table C7); conditions: dosage 1280 g/ha; visual scoring after about 3 weeks; 100% = plants have died, 0% = like control plants
Summary of the method: as §2

[24] = system: harmful plants ABUTH, AMARE, ECHCG, LOLRI, MATIN, POAAN, SETVI, STEME, ALOMY, DIGSA, KCHSC and VERPE; test: Herbicidal post-emergence action, summary of Tables B1-B12; conditions: application rate of 1280 or 320 g of active ingredient per hectare; summary in words
Summary of the method: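 Greenhouse weeds in sandy loam treated post-emergence at the one-leaf stage, 2–3 weeks after sowing, with WP or EC formulations sprayed with 0.5% additive at 600 L/ha water, 1280 or 320 g/ha. Damage rated visually after about 3 weeks versus untreated controls (0% = like control, 100% = dead).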

Poa annua (POAAN) [25] = test: Herbicidal post-emergence action (Table B3); conditions: rated visually after about 3 weeks, 100% = plants have died, 0% = like control plants
Summary of the method: as §1

Fc1ccc(Oc2ncc(Cl)cc2F)c(-c2cc(C(F)F)on2)c1 [Example 1-31]
Pre-emergence action against Bassia scoparia (KCHSC) (Bassia scoparia (KCHSC) [1]; dosage 320 g/ha): 90%
Pre-emergence action against Bassia scoparia (KCHSC) (Bassia scoparia (KCHSC) [1]; dosage 1280 g/ha): 100%
Post-emergence action against Alopecurus myosuroides (ALOMY) ([2]; 320 g/ha): 100%
Post-emergence action against Alopecurus myosuroides (ALOMY) ([2]; 1280 g/ha): 100%
herbicidal activity against the harmful plants of Tables C1-C12 in pre-emergence treatment [3]: very good herbicidal activity
Pre-emergence action against Digitaria sanguinalis (DIGSA) ([4]; dosage 320 g/ha): 90%
Pre-emergence action against Digitaria sanguinalis (DIGSA) ([4]; dosage 1280 g/ha): 100%
Pre-emergence action against Veronica persica (VERPE) (Veronica persica (VERPE) [5]; dosage 320 g/ha): 100%
Pre-emergence action against Veronica persica (VERPE) (Veronica persica (VERPE) [5]; dosage 1280 g/ha): 100%
Post-emergence action against Lolium rigidum (LOLRI) (Lolium rigidum (LOLRI) [6]): 90%
Post-emergence action against Stellaria media (STEME) (Stellaria media (STEME) [7]; dosage 320 g/ha): 100%
Post-emergence action against Stellaria media (STEME) (Stellaria media (STEME) [7]; dosage 1280 g/ha): 100%
Pre-emergence action against Alopecurus myosuroides (ALOMY) [8]: 100%
Pre-emergence action against Stellaria media (STEME) (Stellaria media (STEME) [9]; dosage 320 g/ha): 100%
Pre-emergence action against Stellaria media (STEME) (Stellaria media (STEME) [9]; dosage 1280 g/ha): 100%
Pre-emergence action against Lolium rigidum (LOLRI) (Lolium rigidum (LOLRI) [10]): 100%
Post-emergence action against Setaria viridis (SETVI) (Setaria viridis (SETVI) [11]): 100%
Post-emergence action against Bassia scoparia (KCHSC) (Bassia scoparia (KCHSC) [12]; dosage 320 g/ha): 90%
Post-emergence action against Bassia scoparia (KCHSC) (Bassia scoparia (KCHSC) [12]; dosage 1280 g/ha): 100%
Post-emergence action against Veronica persica (VERPE) (Veronica persica (VERPE) [13]; dosage 320 g/ha): 100%
Post-emergence action against Veronica persica (VERPE) (Veronica persica (VERPE) [13]; dosage 1280 g/ha): 100%
Post-emergence action against Digitaria sanguinalis (DIGSA) ([14]; dosage 320 g/ha): 90%
Post-emergence action against Digitaria sanguinalis (DIGSA) ([14]; dosage 1280 g/ha): 100%
Pre-emergence action against Poa annua (POAAN) (Poa annua (POAAN) [15]; dosage 320 g/ha): 90%
Pre-emergence action against Poa annua (POAAN) (Poa annua (POAAN) [15]; dosage 1280 g/ha): 100%
Pre-emergence action against Setaria viridis (SETVI) (Setaria viridis (SETVI) [16]; dosage 320 g/ha): 100%
Pre-emergence action against Setaria viridis (SETVI) (Setaria viridis (SETVI) [16]; dosage 1280 g/ha): 100%
Post-emergence action against Amaranthus retroflexus (AMARE) ([17]; dosage 320 g/ha): 100%
Post-emergence action against Amaranthus retroflexus (AMARE) ([17]; dosage 1280 g/ha): 100%
Post-emergence action against Abutilon theophrasti (ABUTH) ([18]; 320 g/ha): 90%
Post-emergence action against Abutilon theophrasti (ABUTH) ([18]; 1280 g/ha): 100%
Post-emergence action against Echinochloa crus-galli (ECHCG) ([19]; 320 g/ha): 90%
Post-emergence action against Echinochloa crus-galli (ECHCG) ([19]; 1280 g/ha): 100%
Pre-emergence action against Echinochloa crus-galli (ECHCG) [20]: 100%
Pre-emergence action against Amaranthus retroflexus (AMARE) ([21]; dosage 320 g/ha): 100%
Pre-emergence action against Amaranthus retroflexus (AMARE) ([21]; dosage 1280 g/ha): 100%
Pre-emergence action against Abutilon theophrasti (ABUTH) ([22]; dosage 320 g/ha): 90%
Pre-emergence action against Abutilon theophrasti (ABUTH) ([22]; dosage 1280 g/ha): 100%
Pre-emergence action against Matricaria inodora (MATIN) [23]: 90%
herbicidal activity against the harmful plants of Tables B1-B12 in post-emergence treatment [24]: very good herbicidal activity
Post-emergence action against Poa annua (POAAN) (Poa annua (POAAN) [25]; 320 g/ha): 100%
Post-emergence action against Poa annua (POAAN) (Poa annua (POAAN) [25]; 1280 g/ha): 100%
